The results in this text go back to US20040126823A1, “Modulation of prostaglandin synthesis and cancer growth” (priority 2002, published 2004).

This test concerns Tpl2+/+ macrophages. The test is described as follows: PGE2 levels in LPS treated macrophages (ELISA of culture supernatants). Format: cell-based, mouse. The conditions noted are these: pre-treatment with 20 pM PD98059; Tpl2+/+ macrophages stimulated for 4.5 hrs with LPS. The method, then:
Tpl2+/+ and Tpl2−/− macrophage cultures were stimulated with […] LPS. Culture supernatants collected at 0, 3, 4.5, 6 or 10 hrs were analysed for PGE2 levels by ELISA. Unstimulated Tpl2+/+ and Tpl2−/− macrophage cultures secreted similar levels of PGE2 respectively. PGE2 levels produced by unstimulated cells were given the arbitrary value of 1. The bar graphs show the fold induction of PGE2 (±SD) compared to control untreated cultures.

As for `COc1cccc(-c2cc(=O)c3ccccc3o2)c1N` [PD98059], the PGE2 secretion result was “inhibited PGE2 secretion”.
